Measurements from article PMC11253633, “Robust leishmanicidal upshot of some new diphenyl triazine-based molecules” (RSC Advances, 2024).
pIC50: −log10 of the molar value. Entries after “also recorded” stand apart in the source; their conditions may differ.

Columns and labels:
[1] = test system: L. donovani promastigotes; assay: Anti-leishmanial screening against L. donovani promastigotes at a single concentration (MTT); type: cell-based, Leishmania donovani; details: for Activity against the promastigote parasite (in words) / % Inhibition of L. donovani promastigotes: 100 μM; for inhibition at 100 µM: Leishmania donovani, 72 h; for inhibition at 100 µM / % Inhibition of L. donovani promastigotes: 72 h at 26 °C, MTT
Method: Each candidate was evaluated for its in vitro activity against reference strain (MHOM/IN/83/AG83) of extracellular promastigotes and intracellular amastigotes of L. donovani.
Promastigotes were routinely cultured at 26 °C in medium M199 supplemented with 10% heat inactivated fetal bovine serum (FBS, Gibco Laboratories, Mumbai, India), penicillin 100 (IU mL^−1), streptomycin (100 μg mL^−1). Log phase promastigotes were sub-cultured every 72–96 h, the inoculum being 2 × 10^6 cells per mL.[29]
The triazin hybrids series was evaluated for their antileishmanial ability against L. donovani promastigotes in vitro. Promastigotes of L. donovani (1× 10^6 cells per mL) in M199 medium were incubated at 26 °C for 72 h with each compound at a concentration of 100 μM. Miltefosine (MTF) was used as a reference drug, 0.2% DMSO as solvent control. Parasites with media alone were taken as control. Parasite viability was achieved by MTT assay after 72 h (Sharma et al. 2023).[30]

[2] = test system: Human macrophage THP-1 cell line; assay: Cytotoxicity assay on THP-1 cell line (MTT); type: cell-based; details: 3.125–100 μM
Method: The cell lines were incubated for 48 h at 37 °C in a CO2 incubator with increasing concentrations of test compounds and viability was ascertained. Each point or bar corresponds to the mean ± SEM of triplicate samples and is representative of one of three independent experiments.
THP-1 human monocytic cells were grown at 37 °C in medium RPMI-1640 (pH 7.4, Sigma-Aldrich, St. Louis, MO, USA) supplemented with 10% heat-inactivated FBS for 48 to 72 h in a humidified atmosphere of 5% CO2 and sub-cultured in fresh RPMI-1640 medium at an average density 2 × 10^5 cells per mL (Sharma et al. 2023).[30]
Human macrophage THP-1 cell line of 0.5 × 10^6 cells per mL seeded in RPMI-1640 medium (Sigma-Aldrich, USA) supplemented with 10% FBS (GIBCO) in presence of 5% CO2 at 37 °C in triplicate in 96 well culture plate. The cells were treated with two-fold serially diluted concentrations (100–3.125 μM) of the candidate molecules for 72 h. The IC50 was calculated using MTT assay (Sharma et al. 2023).[30]

[3] = test system: L. donovani promastigotes; assay: Dose-dependent anti-promastigote activity and determination of IC50 (MTT); type: cell-based; details: Leishmania donovani, 72 h, 3 days at 26 °C
Method: MTF was used as a standard antileishmanial drug control. The cell viability was evaluated (by MTT Assay) and the mean percentage viability was calculated as follows: Mean cell number of treated parasites/mean cell number of untreated parasites × 100. The 50 and 90% inhibitory concentration (IC50) i.e., the concentration of drugs that decreased the cell growth by 50 and 90% respectively, was determined by graphical extrapolation after plotting the graph of percentage viability vs. concentration of the drug.[31]
Parasite viability was not affected by DMSO (0.2%, data not shown) used as solvent control.[33]

L. donovani amastigotes = assay: Anti-amastigote assay in infected THP-1 macrophages (Giemsa); type: cell-based, Leishmania donovani
Method: To evaluate the anti-leishmanial effect of the compound T4 and T7 on intracellular L. donovani parasites, macrophage was infected with stationary -phase L. donovani for 6 h. The cells were then washed with saline to remove any non-internalised parasites. To assess the effect of compounds T4 and T7 on intracellular parasites at early stages of infection, macrophages were subsequently treated with T4 and T7 at concentrations of 100, 50, 25, 12.5, or 6.25 μM (refer to Table 3 and Fig. 7) for 6, 24, or 48 hours.
THP-1 cells (5 × 10^5 cells per mL) were cultivated in RPMI-1640 media (Roswell Park Memorial Institute 1640) (Sigma-Aldrich, USA), supplemented with 10% fetal calf serum and maintained at 37 °C with 5% CO2 using phorbol ester as the inducer. These cells were added on circular coverslips (1 × 10^6 cells per mL). Promastigotes of L. donovani were introduced at 1 : 20 ratio. Treatment of the samples was carried out at doses of 100, 50, 25, 12.5, 6.25 and 3.125 μM/72 h. After being taken off, the coverslips were stained with Giemsa. The rate of macrophage infection was then ascertained.

[4] = test system: promastigote form of L. donovani; details: cited from earlier work
[5] = test system: L. donovani promastigotes; assay: Determination of promastigote cellular morphology (light microscopy); type: cell-based, Leishmania donovani; details: 25, 50 and 100 μM, 72 h, light microscopy 40×
Method: For the evident of morphological changes, the promastigotes (Fig. 3 (C to L)) were incubated in presence of compound T7, T4 and control Ampho B with the different concentration 25 μM, 50 μM, 100 μM shown in (Fig. 3C to L) were analysed by light microscopy (40×magnification) compared to untreated cells (Fig. 4A).
Fig. 4 Morphological Analysis of promastigote stage cells treated with compound T4 and MTF, compared to the untreated control (A) and DMSO treated control (B). Exponential-phase promastigotes (1 × 10^6 cells per mL) were incubated with 25 μm, 50 μm and 100 μm and analysed by light microscopy (40× magnification). (A) Untreated control (B) DMSO Treated cells (C–E) Ampho B, (F–H) T4 and T7 (I–K) at 25, 50, and 100 μM respectively. Scale bar in all is 10 μm.
Variations in the cellular morphology of Leishmania parasites due to the treatment with compounds T4 and T7 was detected microscopically. Briefly, the promastigotes (1× 10^6 cells per mL) were incubated in the absence or presence of test compounds and MTF and AmphoB for 72 h with different concentrations and observed under 40× objective of a phase-contrast microscope. […] Data were recorded by using NIS-Elements imaging software.[32]

Row | Molecule | Activity against the promastigote parasite (in words) [1] | inhibition at 100 µM [1] [%] | melting point [°C] | % Inhibition of L. donovani promastigotes [1] [%] | further results
1 | Fc1ccc(N2CCN(c3cc(Sc4nnc(-c5ccccc5)c(-c5ccccc5)n4)ncn3)CC2)cc1 [T15, 3-((6-(4-(4-Fluorophenyl)piperazin-1-yl)pyrimidin-4-yl)thio)-5,6-diphenyl-1,2,4-triazine] | negligible activity; also recorded: minimal activity | 28.8 |  |  | 
2 | Clc1ccc2c(N3CCN(c4cc(Sc5nnc(-c6ccccc6)c(-c6ccccc6)n5)ncn4)CC3)ccnc2c1 [T10, 7-Chloro-4-(4-(6-((5,6-diphenyl-1,2,4-triazin-3-yl)thio)pyrimidin-4-yl)piperazin-1-yl) quinoline] | negligible activity | 22.4 | 260 to 262 |  | 
3 | CCCCCCCCCCCCCCCCOP(=O)([O-])OCC[N+](C)(C)C [MTF, miltefosine, reference compound] |  |  |  |  | Cytotoxicity on THP-1 human macrophages (in words) [2]: some cytotoxicity; Cytotoxicity on THP-1 human macrophages (in words) ([2]; listed as Miltefosine): nontoxic; pIC50 [3]: 5.83; Percentage reduction of parasites (amastigote) (L. donovani amastigotes; 6.25 μM): 68%; Percentage reduction of parasites (amastigote) (L. donovani amastigotes; 12.5 μM): 72%; Percentage reduction of parasites (amastigote) (L. donovani amastigotes; 25 μM): 73%; Percentage reduction of parasites (amastigote) (L. donovani amastigotes; 50 μM): 74%; Percentage reduction of parasites (amastigote) (L. donovani amastigotes; 100 μM): 76%
4 | Clc1ccc2c(Sc3nnc(-c4ccccc4)c(-c4ccccc4)n3)ccnc2c1 [T1, 7-Chloro-4-((5,6-diphenyl-1,2,4-triazin-3-yl)thio)quinoline] |  |  | 250 to 252 | 66.78 | 
5 | CCOC(=O)c1cnc2ccc(C)cc2c1Sc1nnc(-c2ccccc2)c(-c2ccccc2)n1 [T3, Ethyl 4-((5,6-diphenyl-1,2,4-triazin-3-yl)thio)-6-methylquinoline-3-carboxylate] |  | < 90 | 210 to 212 | 83.43 | 
6 | O=C(CSc1nnc(-c2ccccc2)c(-c2ccccc2)n1)Nc1cc(=O)oc2ccccc12 [T5, 2-((5,6-Diphenyl-1,2,4-triazin-3-yl)thio)-N-(2-oxo-2H-chromen-4-yl)acetamide] |  |  | 200 to 202 | 67.93 | 
7 | COc1ccccc1N1CCN(c2cc(Sc3nnc(-c4ccccc4)c(-c4ccccc4)n3)ncn2)CC1 [T12, 103-((6-(4-(2-methoxyphenyl)piperazin-1-yl)pyrimidin-4-yl)thio)-5,6-diphenyl-1,2,4-triazine] | negligible activity; also recorded: minimal activity |  |  | 21.86 | 
8 | C[C@@H]1[C@H](O)[C@@H](C)/C=C/C=C/C=C/C=C/C=C/C=C/C=C/[C@H](O[C@@H]2O[C@H](C)[C@@H](O)[C@H](N)[C@@H]2O)C[C@@H]2O[C@](O)(C[C@@H](O)C[C@@H](O)[C@H](O)CC[C@@H](O)C[C@@H](O)CC(=O)O[C@H]1C)C[C@H](O)[C@H]2C(=O)O [Ampho B, Amphotericin B, reference compound] |  |  |  |  | pIC50 [3]: 5.98; Percentage reduction of parasites (amastigote) (L. donovani amastigotes; 6.25 μM): 74%; Percentage reduction of parasites (amastigote) (L. donovani amastigotes; 12.5 μM): 76%; Percentage reduction of parasites (amastigote) (L. donovani amastigotes; 25 μM): 79.44%; Percentage reduction of parasites (amastigote) (L. donovani amastigotes; 50 μM): 82.5%; Percentage reduction of parasites (amastigote) (L. donovani amastigotes; 100 μM): 84.2%
9 | CCN1CCN(c2cc(Sc3nnc(-c4ccccc4)c(-c4ccccc4)n3)ncn2)CC1 [T13, 113-((6-(4-Ethylpiperazin-1-yl)pyrimidin-4-yl)thio)-5,6-diphenyl-1,2,4-triazine] | negligible activity; also recorded: minimal activity |  |  | 18.54 | 
10 | 1,2,4-triazino[5,6-b]indol-3-ylthio-1,3,5-triazine [1 (Fig. 2)] |  |  |  |  | fold more selectivity in comparison to pentamidine [4]: 20 fold; fold more selectivity in comparison to sodium stibogluconate [4]: 10 fold; inhibition against promastigote form of L. donovani [4]: more than 90%; selectivity (S.I.) [4]: 56.61
11 | c1ccc(-c2nnc(Sc3cc(N4CCCCC4)ncn3)nc2-c2ccccc2)cc1 [T8, 5,6-Diphenyl-3-((6-(piperidin-1-yl)pyrimidin-4-yl)thio)-1,2,4-triazine] | negligible activity | 73.7 |  |  | 
12 | c1ccc(-c2nnc(Sc3cc(N4CCOCC4)ncn3)nc2-c2ccccc2)cc1 [T6, 4-(6-((5,6-Diphenyl-1,2,4-triazin-3-yl)thio)pyrimidin-4-yl)morpholine] | negligible activity | 43.9 | 198 to 200 |  | 
13 | CC1CCN(c2cc(Sc3nnc(-c4ccccc4)c(-c4ccccc4)n3)ncn2)CC1 [T7, 3-((6-(4-Methylpiperidin-1-yl)pyrimidin-4-yl)thio)-5,6-diphenyl-1,2,4-triazine] |  | > 90 | 250 to 252 | 99.89 | Cellular morphological alterations in promastigotes (in words) [5]: loss of flagella; pIC50 [3]: 5.94; Percentage reduction of parasites (amastigote) (L. donovani amastigotes; 6.25 μM): 56%; Percentage reduction of parasites (amastigote) (L. donovani amastigotes; 12.5 μM): 62%; Percentage reduction of parasites (amastigote) (L. donovani amastigotes; 25 μM): 66%; Percentage reduction of parasites (amastigote) (L. donovani amastigotes; 50 μM): 70.6%; Percentage reduction of parasites (amastigote) (L. donovani amastigotes; 100 μM): 72%; Inhibitory activity against amastigotes (in words) (L. donovani amastigotes; 100–6.25 μM, infected macrophages): good inhibitory activity; also recorded: capable of inhibiting the growth
14 | CCOC(=O)c1cnc2ccc(OC)cc2c1Sc1nnc(-c2ccccc2)c(-c2ccccc2)n1 [T2, Ethyl 4-((5,6-diphenyl-1,2,4-triazin-3-yl)thio)-6-methoxyquinoline-3-carboxylate] |  | < 90 | 200 to 202 | 71.02 | 
15 | N#Cc1cccnc1N1CCN(c2cc(Sc3nnc(-c4ccccc4)c(-c4ccccc4)n3)ncn2)CC1 [T9, 2-(4-(6-((5,6-Diphenyl-1,2,4-triazin-3-yl)thio)pyrimidin-4-yl)piperazin-1-yl)nicotinonitrile] | negligible activity | 29.8 | 250 to 252 |  | 
16 | Cc1cc(N2CCN(c3cc(Sc4nnc(-c5ccccc5)c(-c5ccccc5)n4)ncn3)CC2)n2ncnc2n1 [T11, 7-(4-(6-((5,6-Diphenyl-1,2,4-triazin-3-yl)thio)pyrimidin-4-yl)piperazin-1-yl)-5-methyl-[1,2,4]triazolo[1,5-a]pyrimidine] | negligible activity | 32.1 | 280 to 285 |  | 
17 | O=[N+]([O-])c1ccc(N2CCN(c3cc(Sc4nnc(-c5ccccc5)c(-c5ccccc5)n4)ncn3)CC2)cc1 [T14, 123-((6-(4-(4-Nitrophenyl)piperazin-1-yl)pyrimidin-4-yl)thio)-5,6-diphenyl-1,2,4-triazine] | negligible activity; also recorded: minimal activity |  |  | 22.76 | 
